# According to patent US6303612A, “Derivatives of hydroxyphenylsulfanylbenzoic and hydroxphenylsulfanylarylacetic acids” (Leciva, A.S., priority 1998, dated 2001):
# Where two headings read alike, the source gives them in different places.
# Experiments:
# [1] = test system: LTB4 production in rat polymorphonuclear cells; assay: Ex vivo inhibition of LTB4 production (LTB4 biosynthesis); type: cell-based; conditions: for IC50: Rattus norvegicus, read-out: Inh. of LTB4 biosynth., IC50; for Inh. of LTB4 biosynth., %: at 30 μg (%/μg)
# LTB4 receptor = LTB4 receptor (Cavia porcellus, UniProt H0VYV8); assay: LTB4 receptor binding study; conditions: 3H-LTB4, guinea-pig spleen membranes; for IC50: read-out: Inh. of LTB4 rec. binding, IC50; for inhibition at 20 µM: read-out: Inh. of LTB4 rec. binding, %
# Chain of LTB4 receptor (H0VYV8 1-348): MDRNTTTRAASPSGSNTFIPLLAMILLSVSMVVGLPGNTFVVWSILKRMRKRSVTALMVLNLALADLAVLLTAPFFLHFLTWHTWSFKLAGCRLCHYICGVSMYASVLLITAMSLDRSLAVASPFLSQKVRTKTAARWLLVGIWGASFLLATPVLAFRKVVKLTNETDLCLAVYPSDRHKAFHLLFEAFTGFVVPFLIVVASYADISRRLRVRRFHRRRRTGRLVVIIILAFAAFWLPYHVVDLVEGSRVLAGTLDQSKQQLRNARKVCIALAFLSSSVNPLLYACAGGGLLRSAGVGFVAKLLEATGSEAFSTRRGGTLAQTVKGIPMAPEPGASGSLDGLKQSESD
# In short: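 Male guinea-pig spleen membranes (2 mg) incubated with 0.3 nM ^3H-LTB4 for 30 min at 25 °C; nonspecific binding defined with 0.1 μM LTB4. Bound ligand collected by GF/C filtration, counted by liquid scintillation to give specific binding.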
# LTD4 receptor = target: T1, LTD4 receptor (Cavia porcellus, UniProt Q2NNR5); assay: LTD4 receptor binding study; conditions: 3H-LTD4, guinea-pig lung membranes; for IC50: read-out: Inh. of LTD4 rec. binding, IC50; for inhibition at 100 µM: read-out: Inh. of LTD4 rec. binding, %
# T1 construct: The membrane fraction was prepared from male guinea-pig lungs; from tissue; host or cells: male guinea-pig lung membranes
# T1 sequence (Q2NNR5 1-340): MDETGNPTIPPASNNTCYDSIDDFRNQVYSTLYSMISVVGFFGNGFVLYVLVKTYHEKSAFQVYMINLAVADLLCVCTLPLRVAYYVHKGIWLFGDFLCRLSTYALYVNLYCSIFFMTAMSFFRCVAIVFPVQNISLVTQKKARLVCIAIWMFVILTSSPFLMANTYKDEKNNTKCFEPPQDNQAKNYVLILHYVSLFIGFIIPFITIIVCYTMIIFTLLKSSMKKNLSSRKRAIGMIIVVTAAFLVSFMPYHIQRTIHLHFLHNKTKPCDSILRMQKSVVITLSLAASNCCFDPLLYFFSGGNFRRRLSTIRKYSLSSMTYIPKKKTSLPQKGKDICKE
# In short: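 Guinea-pig lung membranes (male animals) were incubated with 0.4 nM ³H-LTD4 for 60 min at 25 °C. Nonspecific binding was defined with 0.1 μM LTD4. Bound radioactivity was measured after filtration and washing.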
# [2] = test system: peroxidation of lipids from the hepatic cells membranes; assay: Antioxidant effect in vitro; type: biochemical; conditions: at 100 μg
# From the text: Antioxidant Effect in vitro
# The end-product, malonic dialdehyde, was transformed to coloured complex with thiobarbituric acid and determined spectrophotometrically. The antioxidant effect was expressed in % of peroxidation inhibition in the presence of the compound tested in comparison to a control sample.
# Wistar-Han rats = assay: Inhibition of carrageenan edema; type: in vivo; conditions: dose 100 mg/kg; for inhibition in vivo at 100 mg/kg: Rattus norvegicus, read-out: CE: inhibition of carrageenan-induced edema, % of inh.
# male mice = assay: Inhibition of arachidonic acid-induced ear inflammation in mice; type: in vivo; conditions: for inhibition in vivo at 200 mg/kg: Mus musculus, po, 1 h
# In short: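 Compounds given orally 1 h before ear inflammation was induced in male mice with 20 µl arachidonic acid in acetone (100 mg/ml). Animals killed 1 h after induction. Ear hyperemia and ear-lobe weight assessed against the vehicle-treated contralateral ear.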
# [3] = test system: bronchospasm induced by ovalbumin; assay: Inhibition of bronchospasm induced by ovalbumin; type: in vivo
# Protocol: (§1) Inhibition of Allergic Bronchospasm Induced by […] (Compound 48/80 or Ovalbumin, Respectively)
# (§2) The modified method of Kreutner W. et al (Krelutner W. et al.: Agents Actions 28, 253 (1989)) was used. Bronchoconstrictioin was induced by intravenous injection of 1 μg/kg LTD4 (3 mg/kg of compound […] or 0.35 mg/kg of ovalbumin, respectively). In the case of oval-bumin, the animals were senzitized by intraperitoneal injection of ovalbumin (100 mg/kg) 14 days before induction. The compounds tested were applied 5 min before the administration of the inductor; the vehiculum used for the application of compound tested was administered to the control group of animals. The tracheal pressure was determined in the intervals of 2, 4 and 10 minutes after induction. The effect was expressed in percentage inhibition of bronchospasm relative to the untreated control.
# [4] = test system: bronchospasm induced by LTD4; assay: Inhibition of bronchospasm induced by LTD4; type: in vivo
# Protocol: as §1, §2
# [5] = test system: bronchospasm induced by histamine liberator 48/80; assay: Inhibition of bronchospasm induced by histamine liberator 48/80; type: in vivo; conditions: dose 100 mg/kg
# Protocol: as §1, §2
# rats = assay: Inhibition of carrageenan-induced pleuritis in rats; type: in vivo; conditions: dose 100 mg/kg, oral, values with mark n: p > 0.05; for inhibition in vivo at 100 mg/kg: Rattus norvegicus, po, 4 h
# In short: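 Rats given test drug as single oral dose 1 h before intrapleural 0.5% carrageenan (1 ml) under light ether anaesthesia. Pleural exudate collected 4 h later; volume, cellularity and total cell count measured.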
# [6] = values with mark n: p > 0.05, read-out: Ear edema, D: edema of ear lobe, % of inh.
# [7] = values with mark n: p > 0.05, read-out: Ear edema, E: hyperemia of ear lobe, % of inh.
# [8] = read-out: Experimental pleuritis, A: volume of exudate in pleural cavity, % of inh.
# [9] = read-out: Experimental pleuritis, B: number of cells, % of inh.
# [10] = read-out: Experimental pleuritis, C: cellularity in a volume unit, % of inh.
# [11] = dose 200 mg/kg, oral, values with mark n: p > 0.05, 200 mg/kg
Structure (SMILES),IC50 [1],"Inh. of LTB4 biosynth., % [1]",IC50 (LTB4 receptor),inhibition at 20 µM (LTB4 receptor; at 20 μM),IC50 (LTD4 receptor),inhibition at 100 µM (LTD4 receptor),"Antiox. effect, % of peroxidation inhibition [2]",inhibition in vivo at 100 mg/kg (Wistar-Han rats),inhibition in vivo at 200 mg/kg (male mice; [6]),inhibition in vivo at 200 mg/kg (male mice; [7]),inhibition in vivo at 100 mg/kg ([3]; 2 min),inhibition in vivo at 100 mg/kg ([3]; 4 min),inhibition in vivo at 100 mg/kg ([3]; 10 min),inhibition in vivo at 100 mg/kg ([4]; 2 min),inhibition in vivo at 100 mg/kg ([4]; 4 min),inhibition in vivo at 100 mg/kg ([4]; 10 min),inhibition in vivo at 100 mg/kg (rats; [8]),inhibition in vivo at 100 mg/kg (rats; [9]),inhibition in vivo at 100 mg/kg (rats; [10]),further results
"O=C(O)c1ccccc1Sc1cccc(OCCCN2CCN(Cc3ccc(Cl)cc3)CC2)c1 [Compound 12, Bis-hydrogenmaleate of 2-(3-(3-(1-(4-Chlorobenzyl)piperazin-4-yl)propoxy)-phenylsulfanyl)benzoic Acid]",< 0.01 µg/mL,100%,7.1 µM,85%,16000 nM,69%,17%,27%,18%,7%,71%,73%,90%,9%,41%,60%,,,,Inhibition of bronchospasm induced by histamine liberator 48/80 ([5]; 2 min): 77%; Inhibition of bronchospasm induced by histamine liberator 48/80 ([5]; 4 min): 78%; Inhibition of bronchospasm induced by histamine liberator 48/80 ([5]; 10 min): 85%
"O=C(O)c1ccccc1Sc1ccc(OCCCN2CCN(Cc3ccc(Cl)cc3)CC2)cc1 [Compound 13, Dimethanesulfonate of 2-(4-(3-(1-(4-Chlorobenzyl)piperazin-4-yl)-propoxy)phenylsulfanyl)benzoic Acid]",7.6 µg/mL,100%,,28%,41000 nM,79%,,,,,46%,35%,51%,6%,38%,54%,,,,Inhibition of bronchospasm induced by histamine liberator 48/80 ([5]; 2 min): 84%; Inhibition of bronchospasm induced by histamine liberator 48/80 ([5]; 4 min): 82%; Inhibition of bronchospasm induced by histamine liberator 48/80 ([5]; 10 min): 69%
O=C(O)c1ccc(Sc2ccc(OCc3ccc4ccccc4n3)cc2)cc1 [Compound 16],,98%,91.6 µM,,24 nM,100%,13%,25%,27%,3%,41%,45%,63%,69%,70.8%,,26%,33%,11%,"Inh. of LTB4 biosynth., IC50 [1]: 0.004 µg/mL; Inh. of LTB4 rec. binding, % (LTB4 receptor; at 20 μM): 19%"
"O=C(O)c1ccccc1Sc1cccc(OCc2ccc3ccccc3n2)c1 [Compound 17, 2-(3-(Quinoline-2-ylmethoxy)phenylsulfanyl)benzoic Acid]",0.08 µg/mL,100%,44.2 µM,38%,630 nM,100%,4%,19%,16%,3%,23%,36%,50%,11%,28%,23%,5%,20%,15%,
"O=C(O)c1ccccc1Sc1ccc(OCc2ccc3ccccc3n2)cc1 [Compound 19, 2-(4-(Quinoline-2-ylmethoxy)phenylsulfanyl)benzoic Acid]",0.13 µg/mL,100%,70.3 µM,34%,1700 nM,100%,10%,13%,20%,5%,21%,27.3%,,14%,33%,43%,17%,23%,6%,
"O=C(O)c1ccccc1Sc1cccc(OCc2ccc3cc(Cl)ccc3n2)c1 [Compound 20, 2-(3-(6-Chloroquinoline-2-ylmethoxy)phenylsulfanyl)benzoic Acid]",,99%,31.3 µM,31%,270 nM,100%,1%,,,,66%,72%,85%,6%,38%,54%,15%,19%,,"Inh. of LTB4 biosynth., IC50 [1]: 0.035 µg/mL; CE: inhibition of carrageenan-induced edema, % of inh. (Wistar-Han rats): 25%; Experimental pleuritis, C: cellularity in a volume unit, % of inh. (rats; 100 mg/kg): 4%; Ear edema, D: edema of ear lobe, % of inh. (male mice; [11]): 12%; Ear edema, E: hyperemia of ear lobe, % of inh. (male mice; [11]): 0%"
"O=C(O)c1ccc(Sc2ccc(OCc3ccc4cc(Cl)ccc4n3)cc2)cc1 [Compound 22, 4-(4-(6-Chloroquinoline-2-ylmethoxy)phenylsulfanyl)benzoic Acid]",0.07 µg/mL,97%,50 µM,22%,3800 nM,84%,13%,14%,1%,9%,3%,15%,30%,14%,33%,43%,10%,25%,15%,
